This assay relates to T1, L-methioninase.
T1 construct: native, intracellular, purified from C. tropicalis cells (heat treatment, DEAE-cellulose, Sephadex); 46 kDa by SDS-PAGE; PLP enzyme
In words: DTNB methanethiol assay, […] nm; Lineweaver-Burk plot. It is filed as biochemical, Candida tropicalis. Particulars: optimum assay conditions (pH 6.5, 45 C, 10 min), PLP; substrate range printed as 1 to 40 uM, which conflicts with the unit of Km; read-out: apparent Km.

`CSCC[C@H](N)C(=O)O` [L-methionine]: the Km was determined as 500 µM.

(Values after article PMC4672112, “Purification, Characterization of L-Methioninase from Candida tropicalis, and Its Application as an Anticancer” (Biotechnology Research International, 2015).)
